IC50 data for 23 compounds are collected here from ChEMBL document CHEMBL4265909, “Synthesis and biological evaluation of novel 5,6-dihydropyrimido[4,5-f]quinazoline derivatives as potent CDK2 inhibitors” (Bioorg Med Chem Lett, 2018).

SMILES strings stand for the structures.

In one assay the test system is MCF7. As to the kind of experiment: Antiproliferative activity against human MCF7 cells after 24 hrs by MTT assay. It counts as functional, cell-based. To be noted: MCF7, 24 h. (In general: Tetrazolium dyes change colour on reduction, which living cells bring about.)
The test system of the next assay is HCT-116. As to the kind of experiment: Antiproliferative activity against human HCT116 cells after 24 hrs by MTT assay. The assay is classed as functional, cell-based. The following applies: HCT-116, 24 h.
The target of another assay is CDK2/Cyclin A2 (Homo sapiens, UniProt P24941). As to the kind of experiment: Inhibition of full-length human CDK2/N-terminal GST-tagged Cyclin A2 (1 to 432 residues) expressed in Baculovirus expression system using FAM-P8/P18 as substrate measured after 40 mins.
Assay [1] addresses Cyclin-dependent kinase 6 (Homo sapiens, UniProt Q00534). As to the kind of experiment: Inhibition of CDK6 (unknown origin).
Assay [2] concerns the target Cyclin-dependent kinase 4 (Homo sapiens, UniProt P11802). As to the kind of experiment: Inhibition of CDK4 (unknown origin).
The target in assay [3] is Cyclin-dependent kinase 1 (Homo sapiens, UniProt P06493). Put plainly: Inhibition of CDK1 (unknown origin).
The target in assay [4] is Cyclin-dependent kinase 5 (Homo sapiens, UniProt Q00535). As to the kind of experiment: Inhibition of CDK5 (unknown origin).
Assay [5] concerns the target Cyclin-dependent kinase 7 (Homo sapiens, UniProt P50613). Put plainly: Inhibition of CDK7 (unknown origin).

Sequence of Cyclin-dependent kinase 4 (P11802 whole entry): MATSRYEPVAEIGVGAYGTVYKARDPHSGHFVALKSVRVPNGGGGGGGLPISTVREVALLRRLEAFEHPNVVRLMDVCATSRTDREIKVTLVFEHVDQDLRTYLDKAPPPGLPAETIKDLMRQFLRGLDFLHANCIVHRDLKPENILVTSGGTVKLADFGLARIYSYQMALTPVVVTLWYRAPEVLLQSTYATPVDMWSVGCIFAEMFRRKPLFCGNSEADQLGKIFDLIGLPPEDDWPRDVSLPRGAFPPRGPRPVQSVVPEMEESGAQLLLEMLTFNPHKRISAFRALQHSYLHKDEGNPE
Sequence of Cyclin-dependent kinase 5 (Q00535 whole entry): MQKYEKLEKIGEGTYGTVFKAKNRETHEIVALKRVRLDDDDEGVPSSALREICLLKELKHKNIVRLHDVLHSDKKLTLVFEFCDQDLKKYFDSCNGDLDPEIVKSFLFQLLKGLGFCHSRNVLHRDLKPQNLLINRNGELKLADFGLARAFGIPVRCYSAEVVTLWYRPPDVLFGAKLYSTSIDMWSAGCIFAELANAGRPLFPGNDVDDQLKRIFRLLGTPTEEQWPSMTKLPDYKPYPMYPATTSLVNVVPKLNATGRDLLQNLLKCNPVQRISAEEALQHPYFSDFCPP
Sequence of Cyclin-dependent kinase 7 (P50613 whole entry): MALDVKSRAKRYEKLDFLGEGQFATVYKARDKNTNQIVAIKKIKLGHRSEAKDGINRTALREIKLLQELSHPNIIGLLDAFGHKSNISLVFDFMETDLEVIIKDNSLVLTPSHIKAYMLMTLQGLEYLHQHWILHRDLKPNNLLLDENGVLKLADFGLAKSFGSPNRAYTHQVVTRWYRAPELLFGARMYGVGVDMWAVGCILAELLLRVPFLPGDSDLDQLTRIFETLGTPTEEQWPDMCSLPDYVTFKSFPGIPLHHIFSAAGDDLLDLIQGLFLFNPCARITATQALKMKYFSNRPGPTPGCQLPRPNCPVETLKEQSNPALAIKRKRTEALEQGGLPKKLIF
Sequence of Cyclin-dependent kinase 1 (P06493 whole entry): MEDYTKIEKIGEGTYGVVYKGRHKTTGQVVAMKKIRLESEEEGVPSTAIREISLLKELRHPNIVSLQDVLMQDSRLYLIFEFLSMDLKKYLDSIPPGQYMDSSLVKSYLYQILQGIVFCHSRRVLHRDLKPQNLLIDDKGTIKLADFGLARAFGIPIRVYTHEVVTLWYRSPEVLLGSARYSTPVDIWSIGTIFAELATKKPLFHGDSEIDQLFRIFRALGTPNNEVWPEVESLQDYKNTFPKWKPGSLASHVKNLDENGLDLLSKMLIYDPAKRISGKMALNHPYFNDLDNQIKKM
Sequence of Cyclin-dependent kinase 6 (Q00534 whole entry): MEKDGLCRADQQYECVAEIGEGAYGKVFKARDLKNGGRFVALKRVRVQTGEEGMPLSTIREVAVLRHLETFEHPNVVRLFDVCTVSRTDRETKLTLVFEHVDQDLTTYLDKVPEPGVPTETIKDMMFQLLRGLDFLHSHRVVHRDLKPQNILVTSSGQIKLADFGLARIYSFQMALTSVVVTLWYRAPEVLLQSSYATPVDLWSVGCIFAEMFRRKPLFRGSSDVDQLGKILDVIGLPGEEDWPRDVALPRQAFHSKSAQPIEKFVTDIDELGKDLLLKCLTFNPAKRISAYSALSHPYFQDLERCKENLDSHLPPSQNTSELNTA

For orientation: IC50 means the point on the concentration scale where inhibition reaches its midpoint. The low end stands for greater potency in that assay, the high end for weaker potency in that assay. As for `Clc1ccc(Nc2ncc3c(n2)-c2cnc(Nc4ccccc4)nc2CC3)cc1`, the 50% inhibitory concentration (IC50) with MCF7 turned out to be 23.5 µM; in the assay with HCT-116, 26.3 µM; against CDK2/Cyclin A2, 2.03 µM.
Take `Nc1ncc2c(n1)-c1cnc(Nc3ccc(C(=O)N4CCOCC4)cc3)nc1CC2`: the IC50 in the assay on MCF7 and in the assay on HCT-116 was greater than 30 µM in each case.
With `CSc1ncc2c(n1)CCc1cnc(Nc3ccc(C(=O)N4CCN(C)CC4)cc3)nc1-2`, the results for the IC50 with MCF7, with HCT-116 and against CDK2/Cyclin A2 were 2.5 µM, 3.8 µM and 0.18 µM, respectively.
Take `CSc1ncc2c(n1)CCc1cnc(Nc3ccccc3)nc1-2`: the half-inhibitory concentration (IC50) worked out at 15.6 µM in the assay with MCF7, 12.7 µM with HCT-116 and 0.41 µM on CDK2/Cyclin A2.
As for `Nc1ncc2c(n1)-c1cnc(Nc3ccc(Cl)cc3)nc1CC2`, the concentration for half-maximal inhibition (IC50) in the assay with MCF7 was greater than 30 µM; with HCT-116 it was greater than 30 µM; against CDK2/Cyclin A2, 1.85 µM.
In the case of `CCOC(=O)c1ccc(Nc2ncc3c(n2)-c2cnc(SC)nc2CC3)cc1`, the IC50 stood at 25.4 µM in the assay with MCF7, 14.3 µM with HCT-116 and 1.25 µM against CDK2/Cyclin A2.
With `CSc1ncc2c(n1)CCc1cnc(Nc3ccc(C(=O)N4CCNCC4)cc3)nc1-2`, the IC50 turned out to be 1.5 µM in the assay with MCF7, 1.3 µM in the assay with HCT-116 and 0.16 µM at CDK2/Cyclin A2.
On to `CCOC(=O)c1ccc(Nc2ncc3c(n2)CCc2cnc(N)nc2-3)cc1`, for which the concentration for half-maximal inhibition (IC50) with MCF7 and with HCT-116 was greater than 30 µM throughout.
Regarding `CSc1ncc2c(n1)CCc1cnc(Nc3ccc(C(=O)N4CCOCC4)cc3)nc1-2`, the IC50 came to 2.1 µM in the assay on MCF7, 3.2 µM in the assay on HCT-116 and 0.19 µM at CDK2/Cyclin A2.
With `CSc1ncc2c(n1)CCc1cnc(Nc3ccc(Cl)cc3)nc1-2`, the IC50 with MCF7 was 7 µM; with HCT-116, 8.3 µM; at CDK2/Cyclin A2, 0.38 µM.
With `CSc1ncc2c(n1)CCc1cnc(Nc3ccc(C(=O)N(C)CCN(C)C)cc3)nc1-2`, the IC50 in the assay with MCF7 is 1.1 µM; in assay [1], greater than 5 µM; in assay [2], greater than 5 µM; in assay [3], 1.25 µM; in assay [4], 0.68 µM; with HCT-116 it was 1.4 µM. The IC50 at CDK2/Cyclin A2 worked out at 0.09 µM; in assay [5] it was 3.6 µM.
As for `CSc1ncc2c(n1)CCc1cnc(Nc3ccc(C(=O)N4CCN(C(=O)OC(C)(C)C)CC4)cc3)nc1-2`, the half-inhibitory concentration (IC50) in the assay on MCF7 is 19.4 µM; in the assay on HCT-116, 17.2 µM; at CDK2/Cyclin A2, 3.7 µM.
Taken in the same sequence, the figures for `CSc1ncc2c(n1)CCc1cnc(Nc3ccc(N)cc3)nc1-2` were 1.4 µM, 1.6 µM and 0.16 µM.
Consider `CSc1ncc2c(n1)CCc1cnc(Nc3ccc(C(=O)NC4CCCC4)cc3)nc1-2`, for which the figures for the 50% inhibitory concentration (IC50) in the assay with MCF7, with HCT-116 and on CDK2/Cyclin A2 were 6.5 µM, 9.1 µM and 1.26 µM, respectively.
The matching figures for `CSc1ncc2c(n1)CCc1cnc(Nc3ccc(C(N)=O)cc3)nc1-2`: 1.3 µM, 0.9 µM and 0.11 µM.
For the compound `CC(C)(C)c1cnc(CSc2cnc(NC(=O)C3CCNCC3)s2)o1` [BMS-387032], the 50% inhibitory concentration (IC50) in the assay on MCF7 was found to be 1 µM; with HCT-116, 0.7 µM.
Turning to `c1ccc(Nc2ncc3c(n2)CCc2cnc(Nc4ccccc4)nc2-3)cc1`, the IC50 in the assay with MCF7 is 20.6 µM; in the assay with HCT-116, 18.1 µM; against CDK2/Cyclin A2, 1.54 µM.
Turning to `CN1CCN(C(=O)c2ccc(Nc3ncc4c(n3)CCc3cnc(N)nc3-4)cc2)CC1`, the concentration for half-maximal inhibition (IC50) in the assay with MCF7 was greater than 30 µM; with HCT-116, greater than 30 µM; at CDK2/Cyclin A2, 5.9 µM.
Consider `CSc1ncc2c(n1)CCc1cnc(Nc3ccc(C(=O)O)cc3)nc1-2`, for which the half-maximal inhibitory concentration (IC50) in the assay on MCF7 was 17.8 µM; in the assay with HCT-116, 12.8 µM; on CDK2/Cyclin A2 it was 0.98 µM.
Take `CN(C)CCN(C)C(=O)c1ccc(Nc2ncc3c(n2)CCc2cnc(N)nc2-3)cc1`: the IC50 in the assay on MCF7 was greater than 30 µM; with HCT-116 it was greater than 30 µM; at CDK2/Cyclin A2, 3.2 µM.
As to `Nc1ncc2c(n1)-c1cnc(Nc3ccccc3)nc1CC2`, the IC50 came out at 27.6 µM with MCF7, 25.3 µM with HCT-116 and 1.7 µM against CDK2/Cyclin A2.
Taken in the same sequence, the figures for `CSc1ncc2c(n1)CCc1cnc(Nc3ccc(C(=O)N(C)C)cc3)nc1-2` were 3.7 µM, 5.3 µM and 0.53 µM.
For `CSc1ncc2c(n1)CCc1cnc(Nc3ccc(F)cc3)nc1-2`, the half-maximal inhibitory concentration (IC50) was found to be 8.4 µM in the assay on MCF7, 7.9 µM with HCT-116 and 0.35 µM on CDK2/Cyclin A2.
